{
  "source": "patent US20150196490A1",
  "about": "(priority 2011, published 2015)",
  "data": [
    {"tested_on": "sweat production", "conditions": "human, in vivo", "units": {"greater effectiveness in reducing sweat production than placebo": "%", "greater reduction in sweat production than the control group": "%", "reduction in sweat production": "mg", "subjects with at least a 30% reduction in sweat production compared to Baseline": "%"}, "values": [
      {"molecule": "Polysorbate 80", "greater effectiveness in reducing sweat production than placebo": 280, "greater reduction in sweat production than the control group": 300, "reduction in sweat production": 159, "subjects with at least a 30% reduction in sweat production compared to Baseline": 80},
      {"molecule": "CCCOC(=O)c1ccc(O)cc1", "note": "[Propylparaben]", "greater effectiveness in reducing sweat production than placebo": 245, "greater reduction in sweat production than the control group": 337, "reduction in sweat production": 177, "subjects with at least a 30% reduction in sweat production compared to Baseline": 70},
      {"molecule": "CCCCCCCCCCCCCC(=O)OC(C)C", "note": "[Isopropyl Myristate]", "greater effectiveness in reducing sweat production than placebo": 191, "greater reduction in sweat production than the control group": 195, "reduction in sweat production": 103, "subjects with at least a 30% reduction in sweat production compared to Baseline": 55}
    ]}
  ]
}
